Measured values: patent US6355799B1, “Substituted benzene compounds, process for their preparation, and herbicidal and defoliant compositions containing them” (ISK Americas Incorporated, priority 1997, dated 2002)

Tests used:
Format in all cases: in vivo
[1] = test system: redroot pigweed (Amaranthus retroflexus, AMARE); test: Pre-emerge test, greenhouse herbicide activity screening; conditions: rated 14 days after application, 0 = no damage, 100 = complete death
Summary of the method: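 Rating: 0–100 visual injury, 14 DAA. Application: acetone, 187 l/ha, 15–1000 g ai/ha, flat-fan track sprayer with nozzle 40–45 cm above soil or canopy. Post-emerge runs used 0.25% v/v surfactant on 2–3 leaf plants.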

[2] = test system: velvetleaf (Abutilon theophrasti, ABUTH); test: as above; conditions: rated 14 days after application, 0 = no damage, 100 = complete death
Summary of the method: (§1)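 Sandy loam pots; pre-emerge: sown 1 d pre-spray, surface-watered after, then bottom-watered. Post-emerge: sown 8–21 d before, 2–3 leaf stage, + 0.25% v/v NIS, bottom-watered. Acetone, 187 l/ha track spray, 15–1000 g ai/ha. 0–100 injury score, day 14.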

[3] = test system: common ragweed (Ambrosia artemisizfolia L., AMBEL); test: as above; conditions: rated 14 days after application, 0 = no damage, 100 = complete death
Summary of the method: as §1

[4] = test system: johnsongrass (Sorghum halepense, SORHA); test: as above; conditions: rated 14 days after application, 0 = no damage, 100 = complete death
Summary of the method: as §1

[5] = test system: ivyleaf morningglory (Ipomoea hederacea, IPOHE); test: as above; conditions: rated 14 days after application, 0 = no damage, 100 = complete death
Summary of the method: as §1

[6] = test system: green foxtail (Setaria viridis, SETVI); test: as above; conditions: rated 14 days after application, 0 = no damage, 100 = complete death
Summary of the method: as §1

[7] = test system: large crabgrass (Digitaria sanguinalis, DIGSA); test: as above; conditions: rated 14 days after application, 0 = no damage, 100 = complete death
Summary of the method: as §1

[8] = test system: sicklepod (Cassia obtusifolia, CASOB); test: as above; conditions: rated 14 days after application, 0 = no damage, 100 = complete death
Summary of the method: as §1

[9] = test system: barnyardgrass (Echinochloa crus-galli, ECHCG); test: as above; conditions: rated 14 days after application, 0 = no damage, 100 = complete death
Summary of the method: as §1

[10] = test system: lambsquarters (Chenopodium album, CHEAL); test: as above; conditions: rated 14 days after application, 0 = no damage, 100 = complete death
Summary of the method: as §1

[11] = test system: velvetleaf (Abutilon theophrasti, ABUTH); test: Post-emerge test, greenhouse herbicide activity screening; conditions: post-emerge, 14 days after application, rating scale 0-100
Summary of the method: (§2)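 Herbicidal damage is scored 0 (none) to 100 (complete plant death) two weeks after a simulated field spray. Rates span 15–1000 g ai/ha, delivered in acetone at 187 l/ha. For post-emergence treatments, plants have 2–3 leaves and the spray carries 0.25% v/v non-ionic surfactant.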

[12] = test system: common ragweed (Ambrosia artemisizfolia L., AMBEL); test: as above; conditions: post-emerge, 14 days after application, rating scale 0-100
Summary of the method: as §2

[13] = test system: johnsongrass (Sorghum halepense, SORHA); test: as above; conditions: post-emerge, 14 days after application, rating scale 0-100
Summary of the method: as §2

[14] = test system: ivyleaf morningglory (Ipomoea hederacea, IPOHE); test: as above; conditions: post-emerge, 14 days after application, rating scale 0-100
Summary of the method: as §2

[15] = test system: green foxtail (Setaria viridis, SETVI); test: as above; conditions: post-emerge, 14 days after application, rating scale 0-100
Summary of the method: as §2

[16] = test system: large crabgrass (Digitaria sanguinalis, DIGSA); test: as above; conditions: post-emerge, 14 days after application, rating scale 0-100
Summary of the method: as §2

[17] = test system: redroot pigweed (Amaranthus retroflexus, AMARE); test: as above; conditions: post-emerge, 14 days after application, rating scale 0-100
Summary of the method: as §2

[18] = test system: sicklepod (Cassia obtusifolia, CASOB); test: as above; conditions: post-emerge, 14 days after application, rating scale 0-100
Summary of the method: as §2

[19] = test system: barnyardgrass (Echinochloa crus-galli, ECHCG); test: as above; conditions: post-emerge, 14 days after application, rating scale 0-100
Summary of the method: as §2

[20] = test system: lambsquarters (Chenopodium album, CHEAL); test: as above; conditions: post-emerge, 14 days after application, rating scale 0-100
Summary of the method: as §2

[21] = test system: field corn (Zea mays L., var. Dekalb 535, CORN); test: Post-emerge test, crop safety; conditions: post-emerge, 14 days after application, rating scale 0-100
Summary of the method: as §1

[22] = test system: upland rice (Oryza sp., var. Tebonnet, RICE); test: Post-emerge test, crop safety; conditions: post-emerge, 14 days after application, rating scale 0-100
Summary of the method: as §1

[23] = test system: field corn (Zea mays L., var. Dekalb 535, CORN); test: Pre-emerge test, crop safety; conditions: rated 14 days after application, 0 = no damage, 100 = complete death
Summary of the method: (§3)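 Plants grown in 10 cm pots of sandy loam mix received acetone-dissolved compounds through a moving flat-fan nozzle. Doses ranged from 15 to 1000 g ai/ha. Pre-emerge pots were seeded one day earlier, post-emerge pots 8–21 days earlier. Fourteen days on, each pot was graded 0–100 for damage.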

[24] = test system: upland rice (Oryza sp., var. Tebonnet, RICE); test: Pre-emerge test, crop safety; conditions: rated 14 days after application, 0 = no damage, 100 = complete death
Summary of the method: as §3

COc1ccc(C(=O)Nc2c(OC)c(Cl)cc(F)c2-n2c(=O)cc(C(F)(F)F)n(C)c2=O)cc1 [2-63]
99: phytotoxicity rating CHEAL ([20]; 63 g ai/ha)
50: phytotoxicity rating SETVI ([15]; 63 g ai/ha) | phytotoxicity rating CORN ([21]; 63 g ai/ha)
0: phytotoxicity rating DIGSA ([16]; 63 g ai/ha)
10: phytotoxicity rating ECHCG ([19]; 63 g ai/ha)
100: Pre-emerge Herbicidal Activity, phytotoxicity rating (0-100), AMARE ([1]; 63 g ai/ha) | Pre-emerge Herbicidal Activity, phytotoxicity rating (0-100), AMARE ([1]; 250 g ai/ha) | Pre-emerge Herbicidal Activity, phytotoxicity rating (0-100), ABUTH ([2]; 63 g ai/ha) | Pre-emerge Herbicidal Activity, phytotoxicity rating (0-100), ABUTH ([2]; 250 g ai/ha) | Pre-emerge Herbicidal Activity, phytotoxicity rating (0-100), AMBEL ([3]; 63 g ai/ha) | Pre-emerge Herbicidal Activity, phytotoxicity rating (0-100), AMBEL ([3]; 250 g ai/ha) | Pre-emerge Herbicidal Activity, phytotoxicity rating (0-100), SORHA ([4]; 250 g ai/ha) | Pre-emerge Herbicidal Activity, phytotoxicity rating (0-100), IPOHE ([5]; 63 g ai/ha) | Pre-emerge Herbicidal Activity, phytotoxicity rating (0-100), IPOHE ([5]; 250 g ai/ha) | Pre-emerge Herbicidal Activity, phytotoxicity rating (0-100), SETVI ([6]; 63 g ai/ha) | Pre-emerge Herbicidal Activity, phytotoxicity rating (0-100), SETVI ([6]; 250 g ai/ha) | Pre-emerge Herbicidal Activity, phytotoxicity rating (0-100), DIGSA ([7]; 63 g ai/ha) | Pre-emerge Herbicidal Activity, phytotoxicity rating (0-100), DIGSA ([7]; 250 g ai/ha) | Pre-emerge Herbicidal Activity, phytotoxicity rating (0-100), CASOB ([8]; 63 g ai/ha) | Pre-emerge Herbicidal Activity, phytotoxicity rating (0-100), CASOB ([8]; 250 g ai/ha) | Pre-emerge Herbicidal Activity, phytotoxicity rating (0-100), ECHCG ([9]; 250 g ai/ha) | Pre-emerge Herbicidal Activity, phytotoxicity rating (0-100), CHEAL ([10]; 63 g ai/ha) | Pre-emerge Herbicidal Activity, phytotoxicity rating (0-100), CHEAL ([10]; 250 g ai/ha) | phytotoxicity rating ABUTH ([11]; 63 g ai/ha) | phytotoxicity rating ABUTH ([11]; 250 g ai/ha) | phytotoxicity rating AMBEL ([12]; 250 g ai/ha) | phytotoxicity rating SORHA ([13]; 250 g ai/ha) | phytotoxicity rating IPOHE ([14]; 63 g ai/ha) | phytotoxicity rating IPOHE ([14]; 250 g ai/ha) | phytotoxicity rating AMARE ([17]; 63 g ai/ha) | phytotoxicity rating AMARE ([17]; 250 g ai/ha) | phytotoxicity rating CASOB ([18]; 63 g ai/ha) | phytotoxicity rating CASOB ([18]; 250 g ai/ha) | phytotoxicity rating ECHCG ([19]; 250 g ai/ha) | phytotoxicity rating CHEAL ([20]; 250 g ai/ha) | Pre-emerge phytotoxicity rating (0-100), crop damage, CORN ([23]; 250 g ai/ha) | Pre-emerge phytotoxicity rating (0-100), crop damage, RICE ([24]; 250 g ai/ha)
60: Pre-emerge phytotoxicity rating (0-100), crop damage, CORN ([23]; 63 g ai/ha)
70: phytotoxicity rating DIGSA ([16]; 250 g ai/ha) | phytotoxicity rating RICE ([22]; 63 g ai/ha)
80: phytotoxicity rating AMBEL ([12]; 63 g ai/ha)
90: Pre-emerge Herbicidal Activity, phytotoxicity rating (0-100), SORHA ([4]; 63 g ai/ha)
95: Pre-emerge Herbicidal Activity, phytotoxicity rating (0-100), ECHCG ([9]; 63 g ai/ha) | phytotoxicity rating SETVI ([15]; 250 g ai/ha) | phytotoxicity rating CORN ([21]; 250 g ai/ha) | phytotoxicity rating RICE ([22]; 250 g ai/ha) | Pre-emerge phytotoxicity rating (0-100), crop damage, RICE ([24]; 63 g ai/ha)
20: phytotoxicity rating SORHA ([13]; 63 g ai/ha)
